Read-outs that look alike come from different tables or passages of the source.
How the values were obtained:
Streptococcus pneumoniae [1] = assay: Adjuvant broth microdilution (antibiotic MIC with SP-BIM at 50 μg/mL); type: cell-based; details: Streptococcus pneumoniae, Streptococcus pneumonia
Escherichia coli [2] = assay: microbe, parasite or virus in culture; type: cell-based; details: antibiotic alone, Table 6, read-out: MIC of antibiotic, No compound
Staphylococcus aureus = assay: Checkerboard synergy (FICI) of antibiotics with SP-BIM; type: cell-based; details: Staphylococcus aureus, Staphylococcus aureus
Streptococcus pneumoniae [3] = assay: as above; type: cell-based
Bacillus cereus = assay: as above; type: cell-based
Klebsiella pneumoniae = assay: as above; type: cell-based
clinical strains of MRSA = assay: Kirby Bauer disc diffusion susceptibility profile; type: cell-based, Staphylococcus aureus; details: for Zone of clearance: 35° C., 24 hours, average n=3; for Interpretive standard (resistant/susceptible): zones vs EUCAST breakpoints (Table 30)
Escherichia coli [4] = assay: Checkerboard synergy (FICI) of antibiotics with SP-BIM; parameters: MIC SP-BIM 13 only / MIC in combination: Antibiotic: unit not given beside the values; details: for MIC: 24 h
Candida albicans = assay: as above; parameters: MIC SP-BIM 13 only / MIC in combination: Antibiotic / MIC antibiotic only: unit not given beside the values
[5] = 24 h, antibiotic alone, SP-BIM 9 checkerboard, read-out: MIC antibiotic only
[6] = 24 h, antibiotic alone, SP-BIM 13 checkerboard, read-out: MIC antibiotic only
[7] = SP-BIM 9 in combination with the labelled antibiotic
[8] = SP-BIM 13 in combination with the labelled antibiotic
[9] = antibiotic in combination with SP-BIM 9
[10] = antibiotic in combination with SP-BIM 13
[11] = Streptococcus pneumonia (title: Streptococcus pyogenes), antibiotic + SP-BIM 9
[12] = Streptococcus pneumoniae, antibiotic + SP-BIM 13
[13] = MIC of the antibiotic in combination with SP-BIM 13
[14] = SP-BIM 13 alone, one value per antibiotic's checkerboard
[15] = SP-BIM 13 alone, one value per antibiotic's checkerboard, read-out: MIC SP-BIM 13 only

With C[C@H]1c2cccc(O)c2C(=O)C2=C(O)[C@]3(O)C(=O)C(C(N)=O)=C(O)[C@@H](N(C)C)[C@@H]3[C@@H](O)[C@@H]21 [Doxycycline, doxycycline] the MIC (Streptococcus pneumoniae [1]; antibiotic alone, Table 5, read-out: MIC of antibiotic, No compound) was 63 µg/mL, the MIC (Escherichia coli [2]) was 63 µg/mL and the MIC (Staphylococcus aureus; [5]) was 8 µg/mL. The MIC (Staphylococcus aureus; [6]) was 8 µg/mL, the “FIC of SP-BIM 9” value (Staphylococcus aureus; [7]) was 0.13 and the “FIC of SP-BIM 13” value (Staphylococcus aureus; [8]) was 0.3. The Interpretation (Staphylococcus aureus; antibiotic + SP-BIM 9) was “Synergy (Synergy: FICI≤0.5)”, the “Σ FIC” value (Staphylococcus aureus; antibiotic + SP-BIM 9) was less than 0.38 and the Interpretation (Staphylococcus aureus; antibiotic + SP-BIM 13) was “Synergy (Synergy: FICI≤0.5)”. The “Σ FIC” value (Staphylococcus aureus; antibiotic + SP-BIM 13) was 0.4, the “MIC in combination, Antibiotic” value (Staphylococcus aureus; [9]) was 2.0 µg/mL and the “MIC in combination, Antibiotic” value (Staphylococcus aureus; [10]) was 1 µg/mL. For the same compound, the FIC of antibiotic (Staphylococcus aureus; in combination with SP-BIM 9) was 0.25, the FIC of antibiotic (Staphylococcus aureus; in combination with SP-BIM 13) was 0.1 and the “FIC of SP-BIM 9” value (Streptococcus pneumoniae [3]; Streptococcus pneumonia (title: Streptococcus pyogenes), SP-BIM 9 in combination with the labelled antibiotic) was 0.50. The Interpretation (Streptococcus pneumoniae [3]; [11]) was “Additive (Additive: FICI>0.5-1.0)”, the “Σ FIC” value (Streptococcus pneumoniae [3]; [11]) was less than 0.75 and the “MIC in combination, Antibiotic” value (Streptococcus pneumoniae [3]; Streptococcus pneumonia (title: Streptococcus pyogenes), antibiotic in combination with SP-BIM 9) was 4 µg/mL. The FIC of antibiotic (Streptococcus pneumoniae [3]; Streptococcus pneumonia (title: Streptococcus pyogenes), in combination with SP-BIM 9) was 0.25, the MIC (Streptococcus pneumoniae [3]; Streptococcus pneumoniae, 24 h, Streptococcus pneumonia (title: Streptococcus pyogenes), antibiotic alone, SP-BIM 9 checkerboard, read-out: MIC antibiotic only) was 16 µg/mL and the MIC (Streptococcus pneumoniae [3]; Streptococcus pneumoniae, 24 h, Streptococcus pneumoniae, antibiotic alone, SP-BIM 13 checkerboard, read-out: MIC antibiotic only) was 16 µg/mL. For the same compound, the “FIC of SP-BIM 13” value (Streptococcus pneumoniae [3]; Streptococcus pneumoniae, SP-BIM 13 in combination with the labelled antibiotic) was 0.3, the Interpretation (Streptococcus pneumoniae [3]; [12]) was “Synergy (Synergy: FICI≤0.5)” and the “Σ FIC” value (Streptococcus pneumoniae [3]; [12]) was less than 0.3. The “MIC in combination, Antibiotic” value (Streptococcus pneumoniae [3]; Streptococcus pneumoniae, antibiotic in combination with SP-BIM 13) was 1 µg/mL, the FIC of antibiotic (Streptococcus pneumoniae [3]; Streptococcus pneumoniae, in combination with SP-BIM 13) was 0.1 and the MIC (Bacillus cereus; [5]) was 4 µg/mL. For the same compound, the MIC (Bacillus cereus; [6]) was 4 µg/mL, the “MIC in combination, SP-BIM 9” value (Bacillus cereus; SP-BIM 9 concentration in combination with the labelled antibiotic) was 125 µg/mL and the “FIC of SP-BIM 9” value (Bacillus cereus; [7]) was 0.5. The “FIC of SP-BIM 13” value (Bacillus cereus; [8]) was 0.3, the Interpretation (Bacillus cereus; antibiotic + SP-BIM 9) was “Synergy (Synergy: FICI≤0.5)” and the “Σ FIC” value (Bacillus cereus; antibiotic + SP-BIM 9) was less than 0.6. For the same compound, the Interpretation (Bacillus cereus; antibiotic + SP-BIM 13) was “Synergy (Synergy: FICI≤0.5)”, the “Σ FIC” value (Bacillus cereus; antibiotic + SP-BIM 13) was 0.5 and the “MIC in combination, Antibiotic” value (Bacillus cereus; [9]) was 0.5 µg/mL. For the same compound, the “MIC in combination, Antibiotic” value (Bacillus cereus; [10]) was 1 µg/mL, the FIC of antibiotic (Bacillus cereus; in combination with SP-BIM 9) was 0.125 and the FIC of antibiotic (Bacillus cereus; in combination with SP-BIM 13) was 0.25. The MIC (Klebsiella pneumoniae; [5]) was 16 µg/mL, the MIC (Klebsiella pneumoniae; [6]) was 16 µg/mL and the “FIC of SP-BIM 9” value (Klebsiella pneumoniae; [7]) was 0.5. The “FIC of SP-BIM 13” value (Klebsiella pneumoniae; [8]) was 0.3, the Interpretation (Klebsiella pneumoniae; antibiotic + SP-BIM 9) was “Additive (Additive: FICI>0.5-1.0)” and the “Σ FIC” value (Klebsiella pneumoniae; antibiotic + SP-BIM 9) was less than 0.8. For the same compound, the Interpretation (Klebsiella pneumoniae; antibiotic + SP-BIM 13) was “Synergy (Synergy: FICI≤0.5)”, the “Σ FIC” value (Klebsiella pneumoniae; antibiotic + SP-BIM 13) was less than 0.4 and the “MIC in combination, Antibiotic” value (Klebsiella pneumoniae; [9]) was 4 µg/mL. For the same compound, the “MIC in combination, Antibiotic” value (Klebsiella pneumoniae; [10]) was 2 µg/mL, the FIC of antibiotic (Klebsiella pneumoniae; in combination with SP-BIM 9) was 0.25 and the FIC of antibiotic (Klebsiella pneumoniae; in combination with SP-BIM 13) was 0.1. The Zone of clearance (clinical strains of MRSA; MRSA strain 1594) was 12.5 mm, the “Interpretive standard (resistant/susceptible)” value (clinical strains of MRSA; MRSA strain 1594) was “R” and the Zone of clearance (clinical strains of MRSA; MRSA strain 1621) was 21.0 mm. For the same compound, the “Interpretive standard (resistant/susceptible)” value (clinical strains of MRSA; MRSA strain 1621) was “S”, the Zone of clearance (clinical strains of MRSA; MRSA strain 5455) was 22.5 mm and the “Interpretive standard (resistant/susceptible)” value (clinical strains of MRSA; MRSA strain 5455) was “S”. The Zone of clearance (clinical strains of MRSA; MRSA strain 5872) was 15.0 mm, the “Interpretive standard (resistant/susceptible)” value (clinical strains of MRSA; MRSA strain 5872) was “R” and the Zone of clearance (clinical strains of MRSA; MRSA strain 7153) was 18.0 mm. For the same compound, the “Interpretive standard (resistant/susceptible)” value (clinical strains of MRSA; MRSA strain 7153) was “R”, the Zone of clearance (clinical strains of MRSA; MRSA strain 7172) was 19.0 mm and the “Interpretive standard (resistant/susceptible)” value (clinical strains of MRSA; MRSA strain 7172) was “R”. The Zone of clearance (clinical strains of MRSA; MRSA strain 7698) was 10.5 mm, the “Interpretive standard (resistant/susceptible)” value (clinical strains of MRSA; MRSA strain 7698) was “R” and the Zone of clearance (clinical strains of MRSA; MRSA strain 10132) was 12.0 mm. For the same compound, the “Interpretive standard (resistant/susceptible)” value (clinical strains of MRSA; MRSA strain 10132) was “R”, the MIC (Escherichia coli [4]; read-out: MIC antibiotic only, Escherichia coli, antibiotic alone) was 16 µg/mL and the MIC (Escherichia coli [4]; read-out: MIC antibiotic only, Escherichia coli, antibiotic alone, SP-BIM 9 checkerboard) was 16 µg/mL. The “MIC in combination: Antibiotic” value (Escherichia coli [4]; [13]) was 2, the “FIC of SP-BIM 9” value (Escherichia coli [4]; [7]) was 0.5 and the “FIC of SP-BIM 13” value (Escherichia coli [4]; [8]) was 0.3. For the same compound, the Interpretation (Escherichia coli [4]; antibiotic + SP-BIM 9) was “Synergy (Synergy: FICI≤0.5)”, the “Σ FIC” value (Escherichia coli [4]; antibiotic + SP-BIM 9) was less than 1.0 and the Interpretation (Escherichia coli [4]; antibiotic + SP-BIM 13) was “Synergy (Synergy: FICI≤0.5)”. For the same compound, the “Σ FIC” value (Escherichia coli [4]; antibiotic + SP-BIM 13) was less than 0.4, the “MIC in combination, Antibiotic” value (Escherichia coli [4]; [9]) was 8 µg/mL and the FIC of antibiotic (Escherichia coli [4]; combination with SP-BIM 13) was 0.1. For the same compound, the FIC of antibiotic (Escherichia coli [4]; in combination with SP-BIM 9) was 0.5, the MIC (Candida albicans; 24 h, read-out: MIC antibiotic only) was 16 µg/mL and the “MIC in combination: Antibiotic” value (Candida albicans; [13]) was 2. The “FIC of SP-BIM 13” value (Candida albicans; [8]) was 0.5, the Interpretation (Candida albicans; antibiotic + SP-BIM 13) was “Additive (Additive: FICI>0.5-1.0)” and the “Σ FIC” value (Candida albicans; antibiotic + SP-BIM 13) was less than 0.6. It also gave an FIC of antibiotic (Candida albicans; combination with SP-BIM 13) of 0.1.
In the case of Oc1cc(C(c2c[nH]c3ccccc23)c2c[nH]c3ccccc23)cc(O)c1O [SP-BIM 13, 5-(di(1H-indol-3-yl)methyl)benzene-1,2,3-triol], the MIC (Streptococcus pneumoniae [1]; SP-BIM at 50 μg mL^−1, read-out: MIC of Kanamvcin with SP-BIM) is reported as 4 µg/mL, the MIC (Streptococcus pneumoniae [1]; SP-BIM at 50 μg mL^−1, read-out: MIC of Vancomvcin with SP-BIM) is reported as less than 0.2 µg/mL and the “MIC SP-BIM 13 only” value (Staphylococcus aureus; [14]) is reported as 125 µg/mL. For the same compound, the MIC (Staphylococcus aureus; [15]) was 63 µg/mL, the “MIC SP-BIM 13 only” value (Streptococcus pneumoniae [3]; Streptococcus pneumoniae, SP-BIM 13 alone, one value per antibiotic's checkerboard) was 125 µg/mL and the MIC (Streptococcus pneumoniae [3]; Streptococcus pneumoniae, SP-BIM 13 alone, one value per antibiotic's checkerboard, read-out: MIC SP-BIM 13 only) was greater than 250 µg/mL. For the same compound, the “MIC SP-BIM 13 only” value (Bacillus cereus; [14]) was greater than 250 µg/mL, the MIC (Bacillus cereus; [15]) was 125 µg/mL and the MIC (Klebsiella pneumoniae; [15]) was greater than 250 µg/mL. The “MIC SP-BIM 13 only” value (Escherichia coli [4]; SP-BIM 13 alone) was greater than 250 and the “MIC SP-BIM 13 only” value (Candida albicans; SP-BIM 13 alone) was greater than 250.

Source: patent US12285407B2, “Bis-indolylmethane derivatives and uses thereof” (The University of The West Indies, priority 2018, dated 2025)
